Results on 15 molecules are retold here after patent US20150274661A1, “INDOL-AMIDE COMPOUNDS AS BETA-AMYLOID INHBITORS” (Hoffmann-La Roche Inc., priority 2012, published 2015).

The term EC50 denotes the concentration needed to bring the measured effect to its halfway point. A lower EC50 goes with higher potency in that assay.

This experiment has as its system Aβ42 secretion. Description: Cellular γ-secretase assay (inhibition of Aβ42 secretion). The following applies: Homo sapiens, 22 h, human neuroglioma H4 cells overexpressing human APP, 22 hours incubation. Type of experiment: cell-based. The procedure, abridged:
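H4 neuroglioma cells overexpressing human APP were exposed to compounds (ten-point dilution series, 0.4% DMSO) for 22 h at 37°C. Secreted Aβ42 in supernatant measured by electrochemiluminescence sandwich immunoassay (ruthenylated BAP15 detection, biotinylated 6E10 capture on streptavidin beads). IC50 by nonlinear regression.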
For `N#CCN1CCC(c2ccc3[nH]c(C(=O)Nc4cncc(F)c4)cc3c2)C1` (stereo not drawn) [Example 80, 5-(1-Cyanomethyl-pyrrolidin-3-yl)-1H-indole-2-carboxylic acid (5-fluoro-pyridin-3-yl)-amide], the EC50 worked out at 942 nM.

`N#CCN1CCC(c2ccc3c(c2)cc(C(=O)Nc2cncc(F)c2)n3CC#N)C1` (stereo not drawn) [Example 81, 1-Cyanomethyl-5-(1-cyanomethyl-pyrrolidin-3-yl)-1H-indole-2-carboxylic acid (5-fluoro-pyridin-3-yl)-amide] gave a half-maximal effective concentration (EC50) of 4250 nM.

`COCC(=O)N1CCC(c2ccc3[nH]c(C(=O)Nc4cncc(F)c4)cc3c2)C1` (stereo not drawn) [Example 82, N-(5-Fluoropyridin-3-yl)-5-(1-(2-methoxyacetyl)pyrrolidin-3-yl)-1H-indole-2-carboxamide] came in with a half-maximal effective concentration (EC50) of 1930 nM.

In the case of `N#Cc1ccc(N2CCC(c3ccc4[nH]c(C(=O)Nc5cncc(F)c5)cc4c3)C2)nn1` (stereo not drawn) [Example 83, 5-(1-(6-Cyanopyridazin-3-yl)pyrrolidin-3-yl)-N-(5-fluoropyridin-3-yl)-1H-indole-2-carboxamide], a half-maximal response (EC50) required 3340 nM.

`O=C(Nc1cncc(F)c1)c1cc2cc(C3CCN(S(=O)(=O)c4ccc(F)cc4)C3)ccc2[nH]1` (stereo not drawn) [Example 84, 5-(1-(4-Fluorophenylsulfonyl)pyrrolidin-3-yl)-N-(5-fluoropyridin-3-yl)-1H-indole-2-carboxamide] registered a half-maximal effective concentration (EC50) of 4860 nM.

The molecule `O=C(Nc1ccc(F)c(F)c1)c1cc2cc(C3=COCCC3)ccc2[nH]1` [Example 85, 5-(5,6-Dihydro-4H-pyran-3-yl)-1H-indole-2-carboxylic acid (3,4-difluoro-phenyl)-amide] showed a concentration for a half-maximal effect (EC50) of 445 nM.

In the case of `O=C(Nc1ccc(F)c(F)c1)c1cc2cc(C3CCCOC3)ccc2[nH]1` (stereo not drawn) [Example 86, 5-(Tetrahydro-pyran-3-yl)-1H-indole-2-carboxylic acid (3,4-difluoro-phenyl)-amide], the EC50 worked out at 990 nM.

`CC(C)N1CC=C(c2ccc3[nH]c(C(=O)Nc4cc(F)cc(F)c4)cc3c2)CC1` [Example 87, 5-(1-Isopropyl-1,2,3,6-tetrahydro-pyridin-4-yl)-1H-indole-2-carboxylic acid (3,5-difluoro-phenyl)-amide] came in with a half-maximal effective concentration (EC50) of 1300 nM.

On to `CC(c1ccc2[nH]c(C(=O)Nc3cc(F)cc(F)c3)cc2c1)N1CCCC1=O` (stereo not drawn) [Example 88, 5-[1-(2-Oxo-pyrrolidin-1-yl)-ethyl]-1H-indole-2-carboxylic acid (3,5-difluoro-phenyl)-amide], for which the concentration giving a half-maximal response (EC50) turned out to be 321 nM.

As for `CC(c1ccc2[nH]c(C(=O)Nc3cc(F)cc(F)c3)cc2c1)N1CCCCC1=O` (stereo not drawn) [Example 89, 5-[1-(2-Oxo-piperidin-1-yl)-ethyl]-1H-indole-2-carboxylic acid (3,5-difluoro-phenyl)-amide], the midpoint of the response, the EC50, lay at 4400 nM.

Regarding `CC(c1ccc2[nH]c(C(=O)Nc3cc(F)cc(F)c3)cc2c1)N1CCCC1` (stereo not drawn) [Example 90, 5-(1-Pyrrolidin-1-yl-ethyl)-1H-indole-2-carboxylic acid (3,5-difluoro-phenyl)-amide], the midpoint of the response, the EC50, lay at 877 nM.

Turning to `C=C(c1ccc2[nH]c(C(=O)Nc3cc(F)cc(F)c3)cc2c1)C1CCN(Cc2ccccc2)C1` (stereo not drawn) [Example 91, 5-(1-(1-Benzylpyrrolidin-3-yl)vinyl)-N-(3,5-difluorophenyl)-1H-indole-2-carboxamide], a half-maximal response (EC50) required 1490 nM.

On to `CC(c1ccc2[nH]c(C(=O)Nc3cc(F)cc(F)c3)cc2c1)C1CCNC1` (stereo not drawn) [Example 92, N-(3,5-Difluorophenyl)-5-(1-(pyrrolidin-3-yl)ethyl)-1H-indole-2-carboxamide], for which the EC50 stood at 1180 nM.

For `CC(c1ccc2[nH]c(C(=O)Nc3cc(F)cc(F)c3)cc2c1)C1CCN(C(C)C)C1` (stereo not drawn) [Example 93, N-(3,5-Difluorophenyl)-5-(1-(1-isopropylpyrrolidin-3-yl)ethyl)-1H-indole-2-carboxamide], the EC50 is 1190 nM.

`CC(c1ccc2[nH]c(C(=O)Nc3cc(F)cc(F)c3)cc2c1)C1CCN(CC#N)C1` (stereo not drawn) [Example 94, 5-(1-(1-(Cyanomethyl)pyrrolidin-3-yl)ethyl)-N-(3,5-difluorophenyl)-1H-indole-2-carboxamide] showed a 50% effective concentration (EC50) of 1340 nM.
